Assay results as given in US7291349B2, “Anti-dermatophytic preparation and use thereof” (priority 2003, dated 2007).

Tested on: Candida albicans MTCC1637
Experiment: Broth assay (two fold dilution method) of garlic extract in combination with essential oils
Assay type: cell-based
Details: Table 3
Procedure: Following tables presents the results of evaluation of antifungal activities of water or solvent extracts of garlic in combinations with the essential oils. […] The combinations of essential oils and garlic extracts were made according to their MICs ([…]). […] But only selected oils viz. Mentha spicata van. […] The activity increased to several folds when these combinations were added to constituent of essential oil like menthyl acetate. […] The broth assay was carried out following the NCCLS documents published by National Committee for Clinical and Laboratory Standards (USA) and disc diffusion assay according to Bauer et al (Bauer et al, […], American Journal of Clinical Pathology, 45:493-496).

How did the FIC value (garlic extract 1/1600) turn out when `CC(=O)OC1CC(C)CCC1C(C)C` (stereo not shown) [Menthyl acetate] was run?
Its FIC value is 1.0.

What about the “Fold enhancement on the basis of Reduction in the MIC of oil in combination” value (garlic extract 1/1600) of the same molecule?
The value was 2.

What about the “Type of Interaction” value (garlic extract 1/1600) of the same molecule?
The value was “Indifference”.

And the “Reduction in the MIC of oil” value (garlic extract 1/1600 in combination)?
The value was 1/1600.

And the FIC value (garlic extract 1/3200)?
Its FIC value is 0.75.

What about the “Fold enhancement on the basis of Reduction in the MIC of oil in combination” value (garlic extract 1/3200) of the same molecule?
Its value is 2.

And the “Type of Interaction” value (garlic extract 1/3200)?
Its value is “Additive”.

And the “Reduction in the MIC of oil” value (garlic extract 1/3200 in combination)?
The value was 1/1600.

What about the FIC value (garlic extract 1/6400) of the same molecule?
The FIC value was 0.625.

And the “Fold enhancement on the basis of Reduction in the MIC of oil in combination” value (garlic extract 1/6400)?
Its value is 2.

And the “Type of Interaction” value (garlic extract 1/6400)?
Its value is “Additive”.

What about the “Reduction in the MIC of oil” value (garlic extract 1/6400 in combination) of the same molecule?
The value was 1/1600.

And the “MIC of essential oil/extract” value (alone, dilution)?
Its value is 1/800.
